Reference: patent US10563243B2, “Bioavailability of metal ions” (priority 2014, dated 2020)

Legend:
[1] = cited from earlier work
[2] = system: mixture of Actinomyces viscosus, Lactobacillus casei, Streptococcus oralis, Fusobacterium nucleatum, and Veillnoella parvula; assay: Zinc/copper bioavailability assay: bacterial viability by resazurin fluorescence, oral bacterial mixture
Protocol: (This bacterial mixture simulates the complex flora of the oral environment.) Subsequently, the cells were washed and mixed with 5 μg/ml resazurin solution. The fluorescence of the samples was read at 560 nm excitation and at 590 nm emission, and compared to standardized mixtures of viable and non-viable bacteria in order to determine the percentage of the total bacterial population that remained viable after treatment. Each salt was tested at two different concentrations of zinc. The total amount of zinc was consistent between the different salts.
The amount of soluble zinc in each solution was also determined by centrifuging the solutions to remove insoluble zinc, and by testing the supernatant using ICP-AA (inductively coupled plasma with atomic absorption).

[3] = system: mixture of Escherichia coli (45%), Staphylococcus aureus (45%) and Serratia marcescens (10%); assay: Zinc bioavailability assay: bacterial viability by resazurin fluorescence, skin bacterial mixture; format: cell-based; settings: Table 5; 0.4% ZnO, 0.8% Zn Citrate, or mix, in deionized water; Triclosan positive control
Protocol: The incubation and detection methods used were as described in Example 1. […] Triclosan was used as a positive antimicrobial control for the experiment.

[4] = Table 6, 0.5% elemental copper in deionized water
[5] = Table 7, 0.05% elemental copper in deionized water

| Compound | theoretical solubility in water [1] | % viable [2, 4] [%] | % viable [2, 5] [%] | % viable [3] [%] | % viable ([2]; Table 2, zinc salt solution without added citrate) [%] |
| --- | --- | --- | --- | --- | --- |
| Cu2O | insoluble | – | – | – | – |
| [O]=[Cu] [CuO] | – | 42.73 | 78.67 | – | – |
| O=S(=O)([O-])[O-].[Cu+2] [CuSO4] | 20 g/100 ml | 5.82 | 13.98 | – | – |
| Oc1cc(Cl)ccc1Oc1ccc(Cl)cc1Cl [Triclosan, reference compound] | – | – | – | 18.83 | – |
| [F][Cu][F] [CuF2] | – | – | 17.82 | – | – |
| [O]=[Zn] [ZnO, zinc oxide] | – | – | – | 67.23 | 23.75 |
| [Cl][Cu][Cl] [CuCl2] | 75.7 g/100 ml | 1.89 | 11.99 | – | – |
